pEC50: −log10 of the molar value.
Tests used:
SARS-CoV-2 = assay: Example 1B: immunofluorescence (anti-dsRNA) quantification of SARS-CoV-2-infected Vero E6 cells; assay type: cell-based; conditions: at 10 μM, MOI 0.4, 24 h (FIG. 3)
Description: FIG. 3 represents the experiment scheme of a SARS-CoV-2 infection of Vero E6 cells at an MOI of 0.4 and the percentage of infected cells assessed by immunofluorescence (IF) in the presence of increasing concentrations of alisporivir.
The anti-SARS-CoV-2 effectiveness of alisporivir was confirmed by immunofluorescence. Vero E6 cells were infected by SARS-CoV-2 at an MOI of 0.4 for 2 h in the presence of increasing concentrations of alisporivir (1, 5 and 10 μM). After virus removal, infected cells were incubated for 24 h in the presence of alisporivir and immunostained with an anti-double-stranded-RNA (dsRNA) antibody. Infected cells were quantified using ImageJ software.

[1] = system: SARS-Cov-2 (isolate from patient infected in Paris)
[2] = system: clinical isolate of SARS-CoV-2
SARS-Cov-1 = conditions: cited from earlier work
in vitro [3] = conditions: African green monkey
in vitro [4] = conditions: African green monkey; remark: listed apart in the source

## C/C=C/C[C@@H](C)[C@@H](O)[C@H]1C(=O)N[C@@H](CC)C(=O)N(C)[C@H](C)C(=O)N(CC)[C@@H](C(C)C)C(=O)N[C@@H](C(C)C)C(=O)N(C)[C@@H](CC(C)C)C(=O)N[C@@H](C)C(=O)N[C@H](C)C(=O)N(C)[C@@H](CC(C)C)C(=O)N(C)[C@@H](CC(C)C)C(=O)N(C)[C@@H](C(C)C)C(=O)N1C [alisporivir, [D-MeAla]3-[EtVal]4-CsA]
SARS-CoV-2
  inhibition of the number of SARS-CoV-2-infected cells (immunofluorescence): complete inhibition
[1]
  pEC50: 6.27
  percentage of inhibition of SARS-CoV-2 RNA production in cell culture supernatant: > 90%
VeroE6 cells
  cytotoxicity: not cytotoxic
[2]
  maximum viral RNA reduction: 2 log 10
[2]; clinical isolate of, 2 h
  therapeutic index: more than 43
[2]; clinical isolate of, 48 h
  pEC50: 6.34
  EC90: 3100 nM
SARS-Cov-1
  fold higher EC50 against SARS-Cov-1 than for HCV replicon: 10.-50 fold
SARS-Cov-1; read-out: EC50 in vitro against different SARS-Cov-1
  pEC50: 5.00 to 5.70
In vitro [3]
  selectivity ratio: > 37
In vitro [4]
  CC50: > 20000 nM

— patent US20230149504A1, “A[…] USE IN HUMAN VIRAL INFECTIONS” (DEBIOPHARM INTERNATIONAL SA, priority 2020, published 2023)
